Assay [1] relates to Aorta. The experiment in a line: Vasorelaxant activity in endothelium-intact thoracic aortic rings of albino adult male Wistar rat assessed as reduction in epinephrine-induced contracture. The assay is classed as functional, tissue-based.
For assay [2], the system named is Aorta. As to the kind of experiment: Vasorelaxant activity in endothelium-intact thoracic aortic rings of albino adult male Wistar rat assessed as reduction in epinephrine-induced contracture at 0.05 to 0.2 mg/ml relative to control. To be noted: dose 0.05-0.2 mg/ml. The format is functional.

As to `Cc1ccc(NC(=O)Cn2cc(COC(Cn3cnc4ccccc4c3=O)c3ccccc3)nn2)cc1` (centres undefined), the EC50 with Aorta [1] came to 1040 µM. In addition, in the assay with Aorta [2], the Emax is 16.4%.

With `O=C(Cn1cc(COC(Cn2cnc3ccccc3c2=O)c2ccccc2)nn1)Nc1ccccc1` (centres undefined), in the assay on Aorta [1], the EC50 came out at 568 µM. The Emax in the assay on Aorta [2] worked out at 35%.

Take `O=C(Cn1cc(COC(Cn2cnc3ccccc3c2=O)c2ccccc2)nn1)Nc1ccc(F)cc1` (centres undefined): the EC50 in the assay on Aorta [1] was found to be 345 µM. Also, in the assay with Aorta [2], the Emax came to 48.2%.

On to `COc1ccc(CCN(C)CCCC(C#N)(c2ccc(OC)c(OC)c2)C(C)C)cc1OC` (centres undefined) [VERAPAMIL], for which the EC50 in the assay on Aorta [1] was determined as 39 µM. Also, the Emax in the assay with Aorta [2] came to 61.7%.

For the molecule `COc1ccc(NC(=O)Cn2cc(COC(Cn3cnc4ccccc4c3=O)c3ccccc3)nn2)cc1` (centres undefined), the EC50 with Aorta [1] was 387 µM. In the assay on Aorta [2], the maximal response (Emax) is 50.9%.

As to `O=C(Cn1cc(COC(Cn2cnc3ccccc3c2=O)c2ccccc2)nn1)Nc1ccc(Cl)cc1` (centres undefined), the concentration giving a half-maximal response (EC50) with Aorta [1] came to 198 µM. Besides, the Emax in the assay with Aorta [2] was 95.1%.

With `Cc1ccccc1NC(=O)Cn1cc(COC(Cn2cnc3ccccc3c2=O)c2ccccc2)nn1` (centres undefined), in the assay on Aorta [1], the EC50 amounted to 246 µM. For the same molecule, the Emax in the assay with Aorta [2] amounted to 93.5%.

(Values after ChEMBL document CHEMBL6182891, “Discovery of novel 1,2,3-Triazole hybrids derivatives as vasorelaxant agents: Molecular structure, Hirshfeld surface, in-vivo and in-silico investigation by molecular docking simulation” (Eur J Med Chem, 2025).)
